In patent US20160228565A1, “POLYAMIDE BASED PEPTID[…]” (New York University, priority 2014, published 2016):

System: HSV-1 (strain SC16)
Assay: Virus yield reduction assay (plaque assay, Vero cell monolayers)
Format: cell-based
Experimental: African green monkey kidney cells (Vero) (ATCC CCL-81) were grown in Dulbecco's modified Eagle's medium (DMEM) supplemented with 10% fetal calf serum. HSV-1 (strain SC16), carrying a lacZ gene driven by the CMV IE-1 promoter to express β-galactosidase, was propagated on Vero cells monolayers.
For all experiments, peptides, dendrimers, and peptidodendrimers were dissolved in DMEM without serum and used at concentrations of 0, 5.5, 55, 280, and 550 nM. All experiments were conducted in triplicate. The percentage of infectivity inhibition was calculated by setting the number of plaques obtained in positive controls where no antiviral compounds were added to the cell monolayers to 0% inhibition.
Confluent Vero cell monolayers (12-well plates) were washed with phosphate-buffered saline (PBS) and infected with HSV-1 at multiplicity of infection (MOI) of 1 plaque-forming unit (pfu)/cell for 1 hour at 37° C. The virus inocula were mixed with the peptide/dendrimer/conjugate(s) to be tested, as described in Example 3 above. […] Plaques were stained with X-gal (5-bromo-4-chloro-3-indolyl-([…]-galactopyranoside) and microscopically counted. The mean plaque counts for each drug concentration were expressed as a percentage of the mean plaque count for the control virus. The number of plaques was plotted as a function of drug concentration. See FIG. 6. […]

For “AAHLIDALYAEFLGGRVLTT (SEQ ID NO: 53) (HSV-1 envelope glycoprotein-derived peptide) [PgH, Residues 493-512 of envelope glycoprotein H]”, the “antiviral activity relative to comparators (in words)” value (HSV-1 on Vero cells, FIGS. 6 and 18) was “less active than gB8”.
For “FARLQFTYNHIQRHVRDMEGR (SEQ ID NO: 23) (HSV-1 envelope glycoprotein-derived peptide) [gB8, Residues 503-523 of envelope glycoprotein B]”, the “inhibitory concentration (range in words)” value (peptide alone vs peptide conjugated to dendrimer) was “micromolar”.
